Measured values reported in patent publication US8288550B2, “Crystalline form of a benzimidazole-carboxamide medicinal compound” (Theravance, Inc., priority 2005, dated 2012).

Experiments:
[1] = Dynamic moisture sorption assessment; type: physicochemical
Description: Dynamic Moisture Sorption Assessment
Dynamic moisture sorption (DMS) assessment was performed at 25° C. using a VTI atmospheric microbalance, SGA-100 system (VTI Corp., Hialeah, Fla. 33016). A sample size of approximately 5-10 mg was used and the humidity was set at the ambient value at the start of the analysis. A typical DMS analysis consisted of three scans: ambient to 2% relative humidity (RH), 2% RH to 90% RH, 90% RH to 5% RH at a scan rate of 5% RH/step. The mass was measured every two minutes and the RH was changed to the next value (±5% RH) when the mass of the sample was stable to within 0.02% for 5 consecutive points.

[2] = Thermal gravimetric analysis (TGA); type: physicochemical; conditions: heating rate 10° C./min
Description: Thermogravimetric analysis (TGA) was performed using a TA Instruments Model Q-500 module. Data were collected and analyzed using TA Instruments Thermal Advantage for Q Series™ software. A sample weighing about 2 mg was placed in an aluminum pan on a platinum cradle and scanned from ambient temperature to about 300° C. with a linear heating rate of 10° C./min. The balance and furnace chambers were purged with nitrogen during use.

[3] = Solid state stability assessment (40° C. and 75% RH); type: physicochemical; conditions: three months, open glass vials
Description: Solid State Stability Assessment
Samples of the crystalline compound of Form I, prepared according to the process of Example 3, were stored in multiple open glass vials at 40° C. and 75% RH. At specific intervals, the contents of a representative vial was removed and analyzed by DSC, TGA, PXRD, and by HPLC for chemical purity.

[4] = Stability to milling of particles; type: physicochemical; conditions: milled from mean particle size about 470 microns to about 15, 22 or 29 microns
[5] = system: Caco-2 cell monolayer; conditions: human, Caco-2, 1 h
Description: In Vitro Model of Oral Bioavailability: Caco-2 Permeation Assay
The Caco-2 permeation assay was performed to model the ability of test compounds to pass through the intestine and get into the blood stream after oral administration. The rate at which test compounds in solution permeate a cell monolayer designed to mimic the tight junction of human small intestinal monolayers was determined.
Caco-2 (colon, adenocarcinoma; human) cells were obtained from ATCC (American Type Culture Collection; Rockville, Md.). For the permeation study, cells were seeded at a density of 63,000 cells/cm^2 on pre-wetted transwells polycarbonate filters (Costar; Cambridge, Mass.). A cell monolayer was formed after 21 days in culture. Following cell culture in the transwell plate, the membrane containing the cell monolayer was detached from the transwell plate and inserted into the diffusion chamber (Costar; Cambridge, Mass.). The diffusion chamber was inserted into the heating block which was equipped with circulating external, thermostatically regulated 37° C. water for temperature control. […]
The permeation study was performed with test compound concentrations at 100 μM and with ^14C-mannitol to monitor the integrity of the monolayer. […] Samples were analyzed by HPLC or liquid scintillation counting for test compound and mannitol concentrations. The permeation coefficient (Kp) in cm/sec was calculated.

| SMILES | weight change (moisture sorption) ([1]; 2% to 90% RH, 25° C./room temperature) | weight change (moisture sorption) ([1]; critical humidity range of 40% to 75% RH) | onset of degradation (TGA) [2] | change in DSC, TGA, PXRD after storage [3] | changes by DSC, TGA or PXRD after milling [4] | permeation coefficient Kp [5] |
| --- | --- | --- | --- | --- | --- | --- |
| COC(=O)N1CCC(CN2CCC(CNC(=O)c3cccc4[nH]c(C(C)C)nc34)CC2)CC1 [Form I, 4-(4-{[(2-isopropyl-1H-benzoimidazole-4-carbonyl)amino]methyl}-piperidin-1-ylmethyl)piperidine-1-carboxylic acid methyl ester] | less than 0.25% | less than 0.1% | above 240 °C | no detectable changes | no changes detectable |  |
| COC(=O)N1CCC(CN2CCC(CNC(=O)c3cccc4[nH]c(C(C)C)nc34)CC2)CC1 [compound of the invention, 4-(4-{[(2-isopropyl-1H-benzoimidazole-4-carbonyl)amino]methyl}-piperidin-1-ylmethyl)piperidine-1-carboxylic acid methyl ester] |  |  |  |  |  | greater than 50×10^−6 cm/sec |
